Patent US12163953B2, “P-phenylene ethynylene compounds as bioactive and detection agents” (STC.UNM, priority 2014, dated 2024)

How the values were obtained:
[1] = target: T1, HEWL fibrils incubated for different lengths of time (Gallus gallus, UniProt P00698); assay: Fluorescence enhancement of dyes versus HEWL incubation time; assay type: binding, hen; details: dye 10 μM, HEWL 10 μM monomer basis
T1 construct: Lyophilized HEWL was dissolved at 10 mg/mL in 10 mM pH 3 sodium citrate buffer with 0.1 M NaCl; purchased Sigma-Aldrich; host or cells: hen egg white; fibrillised in house (pH 3, 70 °C, stirred)
Method: Hen egg white lysozyme (HEWL) was used to form fibrillary amyloid aggregates for use in this study. […] For these experiments. HEWL (Sigma-Aldrich) was incubated at 70′C and a concentration of 350 μM in pH 3 sodium citrate buffer (10 mM) with 100 mM NaCl.
A plot of normalized fluorescence enhancement for all four PEs and Thioflavin T with HEWL fibrils incubated for different lengths of time is shown in FIG. 15. PE1+ and PE2+ track amyloid formation in roughly the same way as ThT, showing a sigmoidal curve with onset of a logarithmic growth phase occurring at the same time, around 1 hour of incubation. The plateau phase, as monitored by fluorescence of any of those three PEs or ThT, appeared at 2 hours incubation.
(§1) For studies of fluorescence enhancement vs. protein incubation time, dyes were mixed with protein sample in phosphate buffer (10 mM, pH 7.4) at equal monomer concentration of 10 μM in the wells of a standard 96-well plate. Emission spectra were obtained using top read with a SpectraMax M2e plate-reading spectrophotometer (Molecular Devices, Sunnyvale, CA). Experiments were performed in duplicate and errors are reported as standard deviation. For analysis of bound PE excitation and emission spectra and protein-PE energy transfer, PEs (500 nM) were mixed with protein sample (5 μM, monomer basis) in phosphate buffer and the solution transferred to a quartz, fluorometry cuvette. Spectra were obtained on a PTI QuantaMaster 40 steady state spectrofluorometer (HORIBA Scientific, Edison, NJ).

[2] = Photophysical properties of PEs alone (excitation/emission spectra, fluorescence yield); assay type: physicochemical; details: for λem (PB): phosphate buffer; for λex (PB), high-energy band / λex (PB), low-energy band: phosphate buffer pH 7.4, 10 mM, PE 500 nM
Method: Excitation and emission spectra of PEs in phosphate buffer alone, with monomeric HEWL and with HEWL amyloids (8 h incubated) are shown in FIGS. 18A-H, and relevant photophysical properties are summarized in Table 1. FIGS. 18A-H illustrate excitation (A, B, C, D) and emission (right; E, F, G. H) spectra of PEs (A, E: PE1+; B, F: PE1−; C, G: PE2+; D, H: […]) alone (long dashed line) with HEWL monomers (short dashed line) and with HEWL amyloids (solid line); PE concentration: 500 nM, protein concentration: 5 μM monomer basis/0.25 mg/mL; emission and excitation wavelengths, respectively, were chosen as shown in Table 1 for each sample. A 10:1 molar ratio of protein to PE was used for these experiments. Absorbance spectra were taken, but background light scattering from insoluble amyloid aggregates made them difficult to interpret, so “fluorescence detected absorbance” in the form of excitation spectra was used instead. Normalized excitation and emission spectra, in which peak shifts and lineshape changes of spectra were somewhat easier to visualize, were used. […] PE1+ (FIG. 18E) had no change in wavelength or lineshape of emission spectrum, just a large increase in intensity when mixed with amyloids. The excitation spectra (FIGS. 18A, B, C, D) show a notable bathochromic shift for each PE in solution mixed with amyloid, of 23, 27, 35 and 29 nm for PE1+, PE2+, PE3+ and PE1−, respectively, observing only the low-energy band. The high-energy band, less relevant for imaging purposes, was also bathochromically shifted. […] PE1− had similar excitation spectrum (FIG. 18B) with monomer and amyloid, except for a large intensity difference.
as §1

[3] = target: T2, HEWL amyloid fibrils (Gallus gallus, UniProt P00698); assay: Induced circular dichroism of PE-amyloid complexes; assay type: binding, hen; details: PEs 10 μM, HEWL 10 μM monomer basis
T2 construct: Lyophilized HEWL was dissolved at 10 mg/mL in 10 mM pH 3 sodium citrate buffer with 0.1 M NaCl; purchased Sigma-Aldrich; host or cells: hen egg white; fibrillised in house (pH 3, 70 °C, stirred)
Method: Circular dichroism measurements were performed to determine if the intrinsic chirality of the HEWL fibrils was transferred to the PE chromophore by a chiral backbone twist or an “excitonic” chiral supramolecular aggregate. CD spectroscopy (CPEs in PB with HEWL monomer and with HEWL amyloid; performed for (a): PE1+; (b): PE1−; (c): PE2+; (d): PE3+; PEs 10 μM, HEWL 10 μM monomer basis/0.5 mg/mL) indicated induced circular dichroism of PEs when bound to HEWL amyloids. As expected, no PE had optical activity by itself in phosphate buffer solution and none of the PEs had any CD with HEWL monomer, including PE1−. […] PE2+ and PE3+ gave rise to similar CD spectra, with more intense bands in the spectrum for PE3+.
PEs and protein samples were diluted in phosphate buffer, gently vortexed, and read in a 1 mm pathlength quartz CD cuvette using an Aviv 410 CD spectrometer (Aviv Biomedical, Lakewood, NJ), 15 s averaging time. A blank spectrum (PB only) was subtracted from each sample to remove background activity. Error bars are standard deviation over multiple reads of a single sample as reported by the instrument.

T2 sequence (P00698 19-147): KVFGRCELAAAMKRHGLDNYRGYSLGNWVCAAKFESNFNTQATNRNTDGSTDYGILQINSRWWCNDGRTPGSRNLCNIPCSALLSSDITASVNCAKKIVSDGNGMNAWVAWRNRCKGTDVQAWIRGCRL
T1 sequence (P00698 19-147): as above

| Structure (SMILES) | HEWL incubation time at which the plateau phase of fluorescence enhancement appears [1] | λem (H2O) [2] | φfl (H2O) [2] | φfl (MeOH) [2] | λem (PB) [2] | λex (PB), high-energy band [2] | λex (PB), low-energy band [2] | induced circular dichroism with HEWL amyloid [3] |
| --- | --- | --- | --- | --- | --- | --- | --- | --- |
| CCOC(=O)c1ccc(C#Cc2cc(OCC[N+](C)(C)C)c(C#Cc3ccc(C#Cc4cc(OCC[N+](C)(C)C)c(C#Cc5ccc(C(=O)OCC)cc5)cc4OCC[N+](C)(C)C)cc3)cc2OCC[N+](C)(C)C)cc1 [PE2+] | 2 h | 448 nm | 0.039 | 0.71 | 460 nm | 330 nm | 399 nm | strong induced CD with a negative Cotton effect |
| CCOC(=O)c1ccc(C#Cc2cc(OCC[N+](C)(C)C)c(C#Cc3ccc(C#Cc4cc(OCC[N+](C)(C)C)c(C#Cc5ccc(C#Cc6cc(OCC[N+](C)(C)C)c(C#Cc7ccc(C(=O)OCC)cc7)cc6OCC[N+](C)(C)C)cc5)cc4OCC[N+](C)(C)C)cc3)cc2OCC[N+](C)(C)C)cc1 [PE3+] | up to 3.5 hours | 440 nm | 0.069 | 0.70 | 464 nm | 340 nm | 399 nm | strong induced CD with a negative Cotton effect |
